Reference: the NIST ThermoML archive (doi:10.1021/je0498053)

Experiments:
[1] = 101.3 kPa, Liquid
[2] = xn = mol fraction of the nth substance listed; conditions: 101.3 kPa, Liquid

CCCCN [1-butanamine]
[1]
Conditions	mass density [kg/m3]	viscosity [mPa·s]
303.15 K	732.1	0.46
313.15 K	722.9	0.4
323.15 K	712.7	0.36

CCCCN [1-butanamine] + CC(C)CC(C)O
[2], x1 = 1
Conditions	mass density [kg/m3]	viscosity [mPa·s]
303.15 K	732.1	0.46
313.15 K	722.9	0.4
323.15 K	712.7	0.36

CCCCN [1-butanamine] + CCCC(C)(C)O
[2], x1 = 1
Conditions	mass density [kg/m3]	viscosity [mPa·s]
303.15 K	732.1	0.46
313.15 K	722.9	0.4
323.15 K	712.7	0.36

CCCCN [1-butanamine] + CCCC(C)CO
[2], x1 = 1
Conditions	mass density [kg/m3]	viscosity [mPa·s]
303.15 K	732.1	0.46
313.15 K	722.9	0.4
323.15 K	712.7	0.36

CCCCN [1-butanamine] + CCCC(O)CC
[2], x1 = 1
Conditions	mass density [kg/m3]	viscosity [mPa·s]
303.15 K	732.1	0.46
313.15 K	722.9	0.4
323.15 K	712.7	0.36

CCCCN [1-butanamine] + CCCCC(C)O
[2], x1 = 1
Conditions	mass density [kg/m3]	viscosity [mPa·s]
303.15 K	732.1	0.46
313.15 K	722.9	0.4
323.15 K	712.7	0.36

CCCCC(C)O (stereo unspecified) [2-hexanol]
[1]
Conditions	mass density [kg/m3]	viscosity [mPa·s]
303.15 K	806.4	3.23
313.15 K	798.4	2.29
323.15 K	790.1	1.64

CCCCC(C)O (stereo unspecified) [2-hexanol] + CCCCN
[2]
Conditions	mass density, 303.15 K [kg/m3]	mass density, 313.15 K [kg/m3]	mass density, 323.15 K [kg/m3]	viscosity, 303.15 K [mPa·s]	viscosity, 313.15 K [mPa·s]	viscosity, 323.15 K [mPa·s]
x2 = 0	806.4	798.4	790.1	3.23	2.29	1.64
x2 = 0.1	802	794.2	786	2.67	1.97	1.45
x2 = 0.2	796.7	788.9	780.6	2.19	1.68	1.26
x2 = 0.3	791.5	783.7	775.3	1.78	1.4	1.1
x2 = 0.4	785	776.9	768.5	1.47	1.17	0.93
x2 = 0.5	777.7	769.4	760.8	1.2	0.98	0.79
x2 = 0.6	769.8	761.4	751.1	0.97	0.81	0.67
x2 = 0.6999	760.7	752.1	741.6	0.79	0.68	0.57
x2 = 0.8	751.3	742.7	732.4	0.65	0.56	0.47
x2 = 0.9	742.1	732.9	722.9	0.53	0.47	0.4

CCCC(C)CO (stereo unspecified) [2-methyl-1-pentanol]
[1]
Conditions	mass density [kg/m3]	viscosity [mPa·s]
303.15 K	816.8	4.55
313.15 K	809.5	3.18
323.15 K	801.5	2.25

CCCC(C)CO (stereo unspecified) [2-methyl-1-pentanol] + CCCCN
[2]
Conditions	mass density, 303.15 K [kg/m3]	mass density, 313.15 K [kg/m3]	mass density, 323.15 K [kg/m3]	viscosity, 303.15 K [mPa·s]	viscosity, 313.15 K [mPa·s]	viscosity, 323.15 K [mPa·s]
x2 = 0	816.8	809.5	801.5	4.55	3.18	2.25
x2 = 0.1	810.3	803	795.3	3.38	2.51	1.85
x2 = 0.2	804.8	797.4	789.6	2.67	2.06	1.57
x2 = 0.2999	798.2	790.6	782.6	2.1	1.65	1.32
x2 = 0.4	791	783.2	775	1.67	1.35	1.08
x2 = 0.5	783.6	775.7	767.2	1.37	1.11	0.91
x2 = 0.6	774.5	766.3	757.7	1.1	0.9	0.75
x2 = 0.6999	764.7	756.2	747.4	0.89	0.72	0.6
x2 = 0.8	753.9	745.2	736.1	0.69	0.59	0.5
x2 = 0.8999	742.9	734.5	724.3	0.54	0.48	0.42

CCCC(C)(C)O [2-methyl-2-pentanol]
[1]
Conditions	mass density [kg/m3]	viscosity [mPa·s]
303.15 K	810.8	2.93
313.15 K	802.4	2.06
323.15 K	793.5	1.46

CCCC(C)(C)O [2-methyl-2-pentanol] + CCCCN
[2]
Conditions	mass density, 303.15 K [kg/m3]	mass density, 313.15 K [kg/m3]	mass density, 323.15 K [kg/m3]	viscosity, 303.15 K [mPa·s]	viscosity, 313.15 K [mPa·s]	viscosity, 323.15 K [mPa·s]
x2 = 0	810.8	802.4	793.5	2.93	2.06	1.46
x2 = 0.1	806.7	798.2	789.2	2.62	1.88	1.34
x2 = 0.2	801.5	793.1	784	2.25	1.66	1.2
x2 = 0.3	795.7	787.2	778.2	1.86	1.41	1.04
x2 = 0.4	788.8	780.2	771.2	1.55	1.2	0.92
x2 = 0.4999	781.4	772.8	763.7	1.26	1	0.79
x2 = 0.5999	772.9	764.2	754.7	1.01	0.83	0.67
x2 = 0.7	763.8	755	745.1	0.82	0.69	0.57
x2 = 0.8	753.4	744.3	734.3	0.66	0.57	0.48
x2 = 0.9	742.4	733.3	723.6	0.54	0.47	0.41

CCCC(O)CC (stereo unspecified) [3-hexanol]
[1]
Conditions	mass density [kg/m3]	viscosity [mPa·s]
303.15 K	810.2	3.52
313.15 K	801.7	2.34
323.15 K	792.8	1.58

CCCC(O)CC (stereo unspecified) [3-hexanol] + CCCCN
[2]
Conditions	mass density, 303.15 K [kg/m3]	mass density, 313.15 K [kg/m3]	mass density, 323.15 K [kg/m3]	viscosity, 303.15 K [mPa·s]	viscosity, 313.15 K [mPa·s]	viscosity, 323.15 K [mPa·s]
x2 = 0	810.2	801.7	792.8	3.52	2.34	1.58
x2 = 0.1	806.4	798.4	789.8	2.85	2.2	1.44
x2 = 0.2	801.4	793.5	785	2.26	1.79	1.24
x2 = 0.3	795.6	787.5	776.9	1.78	1.39	1.07
x2 = 0.3999	788.6	780.5	770	1.41	1.09	0.91
x2 = 0.5	780.4	772	763.2	1.13	0.89	0.76
x2 = 0.5999	772	763.5	754.5	0.92	0.78	0.65
x2 = 0.7	762.9	754.1	745.2	0.76	0.68	0.55
x2 = 0.7999	753	743.6	734.4	0.65	0.58	0.48
x2 = 0.9	742	732.7	723.2	0.54	0.46	0.4

CC(C)CC(C)O (stereo unspecified) [4-methyl-2-pentanol]
[1]
Conditions	mass density [kg/m3]	viscosity [mPa·s]
303.15 K	799.3	3.23
313.15 K	790.7	2.24
323.15 K	782	1.55

CC(C)CC(C)O (stereo unspecified) [4-methyl-2-pentanol] + CCCCN
[2]
Conditions	mass density, 303.15 K [kg/m3]	mass density, 313.15 K [kg/m3]	mass density, 323.15 K [kg/m3]	viscosity, 303.15 K [mPa·s]	viscosity, 313.15 K [mPa·s]	viscosity, 323.15 K [mPa·s]
x2 = 0	799.3	790.7	782	3.23	2.24	1.55
x2 = 0.1	794.8	787	778.6	2.61	1.91	1.4
x2 = 0.2	790.7	782.9	774.5	2.06	1.57	1.21
x2 = 0.3	785.2	777.3	768.9	1.66	1.31	1.02
x2 = 0.3999	779.6	771.5	763	1.35	1.09	0.87
x2 = 0.5	772.8	764.6	755.9	1.09	0.91	0.75
x2 = 0.6	766	757.5	748.6	0.92	0.77	0.64
x2 = 0.6999	758	749.4	740.3	0.77	0.65	0.54
x2 = 0.7999	749.7	740.9	731.1	0.64	0.55	0.47
x2 = 0.9	740.8	731.7	721.7	0.56	0.48	0.41
